# Tests used:
# [1] = tested on: human normal liver cells (LO2); experiment: Cytotoxicity against normal liver cells LO2; format: cell-based; settings: Homo sapiens, MTT, read-out: Effect against cell viability (IC50), LO2
# [2] = target: T1, DNA topoisomerase I (topo I) (Bos taurus, UniProt F1MN93); experiment: Topo I inhibitory activity (pBR322); format: biochemical; settings: at 100 µM
# T1 construct: purchased Takara Bio Inc. (Shiga, Japan)
# T1 sequence (F1MN93 1-767): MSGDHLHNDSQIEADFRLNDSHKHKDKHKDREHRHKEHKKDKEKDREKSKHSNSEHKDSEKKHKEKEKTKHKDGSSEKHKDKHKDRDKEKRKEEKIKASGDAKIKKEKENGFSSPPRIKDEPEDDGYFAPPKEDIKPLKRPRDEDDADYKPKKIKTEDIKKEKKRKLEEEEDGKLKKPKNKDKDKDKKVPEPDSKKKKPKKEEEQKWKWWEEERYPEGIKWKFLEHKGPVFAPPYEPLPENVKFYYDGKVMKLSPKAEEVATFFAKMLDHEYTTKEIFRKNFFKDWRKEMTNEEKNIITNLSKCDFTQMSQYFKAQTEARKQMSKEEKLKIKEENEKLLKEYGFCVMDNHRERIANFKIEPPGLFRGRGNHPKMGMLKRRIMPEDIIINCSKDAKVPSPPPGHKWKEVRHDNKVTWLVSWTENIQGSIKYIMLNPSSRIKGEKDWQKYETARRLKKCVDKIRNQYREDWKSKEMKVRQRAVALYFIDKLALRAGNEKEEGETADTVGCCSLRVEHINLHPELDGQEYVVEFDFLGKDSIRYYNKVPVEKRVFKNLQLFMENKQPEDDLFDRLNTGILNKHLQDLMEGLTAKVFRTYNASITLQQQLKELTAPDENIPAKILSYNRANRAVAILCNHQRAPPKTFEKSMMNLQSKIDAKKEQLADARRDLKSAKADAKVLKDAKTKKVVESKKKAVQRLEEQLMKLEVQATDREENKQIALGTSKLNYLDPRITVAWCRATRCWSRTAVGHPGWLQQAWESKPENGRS
# [3] = tested on: hepatocellular carcinoma bel-7404 (BEL-7404); experiment: MTT antiproliferative assay, BEL-7404; format: cell-based, human; settings: Homo sapiens, read-out: Effect against cell viability (IC50), BEL-7404
# [4] = tested on: bladder cancer cells (T24); experiment: MTT antiproliferative assay, T24; format: cell-based, human; settings: Homo sapiens, read-out: Effect against cell viability (IC50), T24
smiles,measurement,setting,value
"COc1ccc(-c2nnc(N=C3c4ccccc4NC4C=CC(C)=CC34)s2)cc1 (stereo not shown) [6h, 7-methyl-N-(5-(4-methoxyphenyl)-1,3,4-thiadiazol-2-yl)-10,10a-dihydroacridin-9(8aH)-imine]",IC50,[1],43.8 ± 2.63 µM
same,topo I inhibitory activity,[2],potent
same,IC50,[3],20.2 ± 1.59 µM
same,IC50,[4],8.93 ± 1.25 µM

# Reference: publication PMC9820444, “Design and Synthesis of Acridine-Triazole and Acridine-Thiadiazole Derivatives and Their Inhibitory Effect against Cancer Cells” (International Journal of Molecular Sciences, 2022)
